Activity calls are given as the source filed them. The rule behind the calls is not given here.
What follows are molecules tested against Serine/threonine-protein kinase mTOR (Homo sapiens) (UniProt P42345) (assay: mTOR FRB domain ligand binding – biophysical, NMR (AID 1648)). Conditions: NMR binding to FRB domain, chemical shift.
Serine/threonine-protein kinase mTOR (Homo sapiens), sequence (P42345 2015-2114): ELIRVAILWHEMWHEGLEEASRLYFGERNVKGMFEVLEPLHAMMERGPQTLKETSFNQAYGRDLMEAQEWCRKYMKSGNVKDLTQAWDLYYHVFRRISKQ
For `CC1CC2(NC(=O)NC2=O)C(C)CN1C` (stereo unspecified), the Kd was > 4 mM (inactive). With `O=C(Nc1ccc2c(c1)OCO2)c1ccc(=O)[nH]n1` the Kd was > 4 mM (inactive). For `CC(C)=CCOc1c2occc2cc2ccc(=O)oc12`, the Kd was > 4 mM (inactive). In the case of `COC(=O)[C@H]1[C@H]2C[C@H]3c4[nH]c5ccccc5c4CCN3C[C@H]2CC[C@@H]1O`, the Kd was > 4 mM (inactive). With `CCNS(=O)(=O)c1cc(Br)ccc1OC` the Kd was > 4 mM (inactive). With `c1ccc2nc3c(nc2c1)CCc1nonc1-3` the Kd was > 4 mM (inactive). With `S=C(Cc1cccnc1)N1CCOCC1` the Kd was > 4 mM (inactive). For `CC(NC(=O)c1cccnc1)c1ccc2c(c1)OCO2` (stereo unspecified), the Kd was > 4 mM (inactive). For `CCN1CCn2c1nc(N1CCOCC1)nc2=O`, the Kd was > 4 mM (inactive). With `Oc1ccc(-n2cncn2)cc1` the Kd was > 4 mM (inactive). `CCOc1ccc2nc(NS(C)(=O)=O)sc2c1` was tested, and the Kd was > 4 mM (inactive). In the case of `Cc1occc1C(=O)Nc1ccc2c(c1)CCC2`, the Kd was > 4 mM (inactive). For `O=C(c1ccco1)N1CCN(Cc2cccc(F)c2)CC1`, the Kd was > 4 mM (inactive). In the case of `Cn1ncc(CO)c1-c1ccccc1`, the Kd was > 4 mM (inactive). In the case of `CC(=O)O[C@@H]1CC[C@@]2(C)C(CC[C@]3(C)C2CC=C2C4CC(C)(C)CC[C@]4(C(=O)O)CC[C@]23C)C1(C)C` (stereo partly specified), the Kd was > 4 mM (inactive). For `O=C(O)CN1C(=O)c2cccc([N+](=O)[O-])c2C1=O`, the Kd was > 4 mM (inactive). For `O=C1C2C3C=CC(C3)C2C(=O)N1c1cccnc1` (stereo unspecified), the Kd was > 4 mM (inactive). With `CC(C)CCn1cnc2c1c(=O)n(C)c(=O)n2C` the Kd was > 4 mM (inactive). `Cc1cc(C)n(CCCC(=O)O)n1` was tested, and the Kd was > 4 mM (inactive). With `CC(=O)c1c(O)n(C)c(=S)n(C)c1=O` the Kd was > 4 mM (inactive). In the case of `O=C(NCC1CCCCC1)c1ccco1`, the Kd was > 4 mM (inactive). In the case of `Cc1cc(=O)[nH]c(NCc2cccnc2)n1`, the Kd was > 4 mM (inactive). For `OCc1ccc(-n2ccnc2)cc1`, the Kd was > 4 mM (inactive). `CC1=CC(=O)NC2C=CC=CC12` (stereo unspecified) was tested, and the Kd was > 4 mM (inactive). In the case of `OCc1cccs1`, the Kd was > 4 mM (inactive). In the case of `CC(=O)c1sc2nc(N)nn2c1C`, the Kd was > 4 mM (inactive). `CC1(C)Oc2ccc3ccc(=O)oc3c2CC1O` (stereo unspecified) was tested, and the Kd was > 4 mM (inactive). With `Cc1cc(OC(=O)c2ccco2)c([N+](=O)[O-])c(=O)[nH]1` the Kd was > 4 mM (inactive). `O=C(Cc1ccc(F)cc1)Nc1ncccn1` was tested, and the Kd was > 4 mM (inactive). For `CN1CCC(N2CCCC(C(N)=O)C2)CC1` (stereo unspecified), the Kd was > 4 mM (inactive). In the case of `NC(=O)CSCc1ccc(Br)cc1`, the Kd was > 4 mM (inactive). For `CC(=O)O[C@H]1C[C@@H](OC(C)=O)C(C)(C)C2C[C@@H](OC(C)=O)[C@]3(C)C(CC[C@@]4(C)[C@H](c5ccoc5)C(=O)[C@H]5O[C@]543)[C@]21C` (stereo partly specified), the Kd was > 4 mM (inactive). `Cc1cc(C)n2c(SCc3cccs3)nnc2n1` was tested, and the Kd was > 4 mM (inactive). For `O=C(O)c1cc2ccccc2s1`, the Kd was > 4 mM (inactive). In the case of `O=C(O)Cn1cnc2ccccc2c1=O`, the Kd was > 4 mM (inactive). With `COc1ccc2nc(N)sc2n1` the Kd was > 4 mM (inactive). For `COC(=O)C[C@@H]1C2(C)C(=O)[C@@H](CC3=C4C=C(OC)O[C@@H](c5ccoc5)[C@]4(C)CCC32)[C@H](O)C1(C)C` (stereo partly specified), the Kd was > 4 mM (inactive). With `Cc1ccc(-c2nnn(CC(=O)O)n2)cc1` the Kd was > 4 mM (inactive). With `CC(C)(C)CC(=O)N1CCC(C(N)=O)CC1` the Kd was > 4 mM (inactive). For `COc1ccc(C)cc1S(N)(=O)=O`, the Kd was > 4 mM (inactive). With `OCC1CCN(Cc2ccccc2)CC1` the Kd was > 4 mM (inactive). For `COc1cc(C(C)=O)ccc1OC(=O)N1CCOCC1`, the Kd was > 4 mM (inactive). In the case of `O=C(/C=C/c1ccccc1)c1ccc(O)cc1`, the Kd was > 4 mM (inactive). In the case of `CC(=O)O[C@@H]1CC2C(C)(C)C(=O)[C@@H]3O[C@@H]3[C@]2(C)C2CC[C@]3(C)C(=CC(=O)O[C@H]3c3ccoc3)[C@@]21C` (stereo partly specified), the Kd was > 4 mM (inactive). With `O=C(CO)N/N=C/c1ccccc1F` the Kd was > 4 mM (inactive). In the case of `O=S(=O)(CCN1CCCC1)c1ccccc1`, the Kd was > 4 mM (inactive).

— PubChem BioAssay AID1648 (Sanford-Burnham Center for Chemical Genomics, 2009)
